Source: ChEMBL document CHEMBL4507286 (2021)

Columns and labels:
[1] = biological target: Tyrosine-protein kinase ABL1 (Homo sapiens) (UniProt P00519)
[2] = biological target: Aurora kinase A (Homo sapiens) (UniProt O14965)
[3] = biological target: Tyrosine-protein kinase Mer (Homo sapiens) (UniProt Q12866)
[4] = system: Epidermal growth factor receptor (Homo sapiens), P00533 [UNDEFINED MUTATION]
[5] = biological target: Rhodopsin kinase GRK7 (Homo sapiens) (UniProt Q8WTQ7)
[6] = biological target: Tyrosine-protein kinase JAK1 (Homo sapiens) (UniProt P23458)
[7] = biological target: Fibroblast growth factor receptor 4 (Homo sapiens) (UniProt P22455)
[8] = biological target: Alpha-2A adrenergic receptor (Homo sapiens) (UniProt P08913); settings: Compound concentration 10.0 uM
[9] = biological target: Sodium-dependent noradrenaline transporter (Homo sapiens) (UniProt P23975); settings: Compound concentration 10.0 uM
Chain of Sodium-dependent noradrenaline transporter (Homo sapiens) (P23975 whole entry): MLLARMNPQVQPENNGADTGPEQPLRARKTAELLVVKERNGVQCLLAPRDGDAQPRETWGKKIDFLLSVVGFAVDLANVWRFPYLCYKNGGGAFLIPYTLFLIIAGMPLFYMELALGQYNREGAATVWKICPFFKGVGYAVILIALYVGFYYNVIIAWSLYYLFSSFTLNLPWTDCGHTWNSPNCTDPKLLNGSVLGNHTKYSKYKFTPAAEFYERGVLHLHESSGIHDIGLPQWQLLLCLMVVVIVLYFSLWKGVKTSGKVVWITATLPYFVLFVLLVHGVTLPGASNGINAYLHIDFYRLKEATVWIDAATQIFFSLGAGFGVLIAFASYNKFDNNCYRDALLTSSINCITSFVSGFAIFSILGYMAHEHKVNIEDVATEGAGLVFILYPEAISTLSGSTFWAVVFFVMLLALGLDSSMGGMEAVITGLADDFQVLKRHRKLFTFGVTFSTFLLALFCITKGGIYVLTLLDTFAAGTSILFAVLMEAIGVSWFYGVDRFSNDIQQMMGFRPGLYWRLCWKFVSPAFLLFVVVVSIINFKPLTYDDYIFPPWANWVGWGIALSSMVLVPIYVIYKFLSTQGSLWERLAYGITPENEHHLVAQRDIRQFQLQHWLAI

[10] = biological target: D(1B) dopamine receptor (Homo sapiens) (UniProt P21918); settings: Compound concentration 10.0 uM
[11] = biological target: Phosphatidylinositol 4,5-bisphosphate 3-kinase catalytic subunit beta isoform (Homo sapiens) (UniProt P42338)
[12] = biological target: Tyrosine-protein kinase ABL1 (Homo sapiens) (UniProt P00519); remark: listed apart in the source
[13] = biological target: Glycogen synthase kinase-3 alpha (Homo sapiens, UniProt P49840)
[14] = system: ALK tyrosine kinase receptor (Homo sapiens), Q9UM73 [L1196M]
[15] = system: Tyrosine-protein kinase ABL1 (Homo sapiens), P00519 [Q252H]
[16] = biological target: Serine/threonine-protein kinase MRCK gamma (Homo sapiens) (UniProt Q6DT37)
[17] = biological target: Serine/threonine-protein kinase MRCK beta (Homo sapiens) (UniProt Q9Y5S2)
[18] = biological target: Serine/threonine-protein kinase BRSK2 (Homo sapiens) (UniProt Q8IWQ3)
Chain of Serine/threonine-protein kinase BRSK2 (Homo sapiens) (Q8IWQ3 whole entry): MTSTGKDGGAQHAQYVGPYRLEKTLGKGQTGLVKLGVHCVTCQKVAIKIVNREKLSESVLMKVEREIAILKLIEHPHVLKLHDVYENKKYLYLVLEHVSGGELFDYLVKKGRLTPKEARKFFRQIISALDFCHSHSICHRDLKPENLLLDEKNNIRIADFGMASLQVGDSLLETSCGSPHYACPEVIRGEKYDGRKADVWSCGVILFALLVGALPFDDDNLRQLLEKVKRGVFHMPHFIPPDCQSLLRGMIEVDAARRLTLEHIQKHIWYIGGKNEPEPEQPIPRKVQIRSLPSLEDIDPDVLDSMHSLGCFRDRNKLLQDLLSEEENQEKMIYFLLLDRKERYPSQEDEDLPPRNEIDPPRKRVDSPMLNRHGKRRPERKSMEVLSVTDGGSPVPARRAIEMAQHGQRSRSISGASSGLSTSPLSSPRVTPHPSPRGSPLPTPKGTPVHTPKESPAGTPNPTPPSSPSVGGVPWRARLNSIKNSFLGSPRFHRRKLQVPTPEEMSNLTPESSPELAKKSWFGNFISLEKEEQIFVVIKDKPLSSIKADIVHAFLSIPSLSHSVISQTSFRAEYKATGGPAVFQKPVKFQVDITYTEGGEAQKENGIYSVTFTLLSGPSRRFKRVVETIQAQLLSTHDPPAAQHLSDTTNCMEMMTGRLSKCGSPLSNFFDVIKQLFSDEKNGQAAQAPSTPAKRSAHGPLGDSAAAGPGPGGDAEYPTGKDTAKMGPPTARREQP

[19] = biological target: Tyrosine-protein kinase JAK2 (Homo sapiens) (UniProt O60674)
[20] = biological target: Histamine H3 receptor (Homo sapiens) (UniProt Q9Y5N1); settings: Compound concentration 10.0 uM
[21] = biological target: Myosin light chain kinase family member 4 (Homo sapiens) (UniProt Q86YV6)
[22] = system: Proto-oncogene tyrosine-protein kinase receptor Ret (Homo sapiens), P07949 [V804M]
Chain of Proto-oncogene tyrosine-protein kinase receptor Ret (Homo sapiens), P07949 [V804M] (P07949 whole entry V804M): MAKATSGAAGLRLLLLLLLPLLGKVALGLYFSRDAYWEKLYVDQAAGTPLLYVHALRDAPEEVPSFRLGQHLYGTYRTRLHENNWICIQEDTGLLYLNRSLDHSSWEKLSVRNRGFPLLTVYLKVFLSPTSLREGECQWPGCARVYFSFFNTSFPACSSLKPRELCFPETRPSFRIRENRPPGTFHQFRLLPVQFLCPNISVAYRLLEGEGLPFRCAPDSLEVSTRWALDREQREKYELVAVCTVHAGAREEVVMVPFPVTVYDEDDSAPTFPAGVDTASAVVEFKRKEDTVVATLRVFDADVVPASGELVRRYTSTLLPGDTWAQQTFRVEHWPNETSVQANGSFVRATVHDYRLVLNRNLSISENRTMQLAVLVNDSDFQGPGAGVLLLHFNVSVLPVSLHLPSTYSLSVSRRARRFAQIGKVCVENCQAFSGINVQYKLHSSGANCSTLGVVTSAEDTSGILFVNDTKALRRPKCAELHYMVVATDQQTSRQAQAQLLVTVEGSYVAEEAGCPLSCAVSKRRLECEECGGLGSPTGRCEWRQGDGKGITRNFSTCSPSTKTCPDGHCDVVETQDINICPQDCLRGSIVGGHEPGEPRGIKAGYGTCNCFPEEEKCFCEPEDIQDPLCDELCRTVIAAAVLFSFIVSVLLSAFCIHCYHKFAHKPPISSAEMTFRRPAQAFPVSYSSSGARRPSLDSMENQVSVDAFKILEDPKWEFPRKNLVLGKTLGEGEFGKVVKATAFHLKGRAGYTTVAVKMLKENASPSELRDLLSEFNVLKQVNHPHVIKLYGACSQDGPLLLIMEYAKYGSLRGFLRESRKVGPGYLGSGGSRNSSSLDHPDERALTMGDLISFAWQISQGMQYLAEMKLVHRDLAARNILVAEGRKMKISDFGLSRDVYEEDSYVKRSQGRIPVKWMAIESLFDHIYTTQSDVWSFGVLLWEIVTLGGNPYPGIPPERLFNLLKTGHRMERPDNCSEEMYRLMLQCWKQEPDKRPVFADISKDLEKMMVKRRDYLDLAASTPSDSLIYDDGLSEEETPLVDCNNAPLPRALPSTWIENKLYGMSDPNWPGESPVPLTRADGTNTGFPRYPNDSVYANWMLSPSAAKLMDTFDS

[23] = biological target: Calcium/calmodulin-dependent protein kinase type IV (Homo sapiens) (UniProt Q16566)
[24] = biological target: LIM domain kinase 2 (Homo sapiens) (UniProt P53671)
[25] = system: Tyrosine-protein kinase ABL1 (Homo sapiens), P00519 [Q252H]; remark: listed apart in the source
[26] = biological target: 3-phosphoinositide-dependent protein kinase 1 (Homo sapiens) (UniProt O15530)
[27] = biological target: Sodium-dependent dopamine transporter (Homo sapiens) (UniProt Q01959); settings: Compound concentration 10.0 uM
[28] = biological target: Casein kinase I isoform delta (Homo sapiens) (UniProt P48730)
[29] = biological target: Activin receptor type-2A (Homo sapiens) (UniProt P27037)
Chain of Activin receptor type-2A (Homo sapiens) (P27037 whole entry): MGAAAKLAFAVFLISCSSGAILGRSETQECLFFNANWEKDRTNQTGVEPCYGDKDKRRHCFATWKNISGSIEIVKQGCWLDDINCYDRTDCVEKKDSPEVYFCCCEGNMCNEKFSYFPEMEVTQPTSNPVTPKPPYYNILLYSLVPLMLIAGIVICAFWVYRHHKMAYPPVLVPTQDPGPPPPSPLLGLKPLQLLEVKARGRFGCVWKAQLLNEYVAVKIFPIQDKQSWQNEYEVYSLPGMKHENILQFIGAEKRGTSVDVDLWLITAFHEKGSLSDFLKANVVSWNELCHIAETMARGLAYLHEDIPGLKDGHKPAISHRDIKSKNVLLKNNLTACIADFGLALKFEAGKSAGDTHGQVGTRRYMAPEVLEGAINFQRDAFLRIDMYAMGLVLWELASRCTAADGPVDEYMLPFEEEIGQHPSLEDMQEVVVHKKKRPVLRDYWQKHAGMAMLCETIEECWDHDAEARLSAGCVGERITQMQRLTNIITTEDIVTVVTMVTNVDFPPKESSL

[30] = system: Epidermal growth factor receptor (Homo sapiens), P00533 [G719S]
[31] = biological target: Calcium/calmodulin-dependent protein kinase kinase 2 (Homo sapiens) (UniProt Q96RR4)
Chain of Calcium/calmodulin-dependent protein kinase kinase 2 (Homo sapiens) (Q96RR4 2-588 limits assumed): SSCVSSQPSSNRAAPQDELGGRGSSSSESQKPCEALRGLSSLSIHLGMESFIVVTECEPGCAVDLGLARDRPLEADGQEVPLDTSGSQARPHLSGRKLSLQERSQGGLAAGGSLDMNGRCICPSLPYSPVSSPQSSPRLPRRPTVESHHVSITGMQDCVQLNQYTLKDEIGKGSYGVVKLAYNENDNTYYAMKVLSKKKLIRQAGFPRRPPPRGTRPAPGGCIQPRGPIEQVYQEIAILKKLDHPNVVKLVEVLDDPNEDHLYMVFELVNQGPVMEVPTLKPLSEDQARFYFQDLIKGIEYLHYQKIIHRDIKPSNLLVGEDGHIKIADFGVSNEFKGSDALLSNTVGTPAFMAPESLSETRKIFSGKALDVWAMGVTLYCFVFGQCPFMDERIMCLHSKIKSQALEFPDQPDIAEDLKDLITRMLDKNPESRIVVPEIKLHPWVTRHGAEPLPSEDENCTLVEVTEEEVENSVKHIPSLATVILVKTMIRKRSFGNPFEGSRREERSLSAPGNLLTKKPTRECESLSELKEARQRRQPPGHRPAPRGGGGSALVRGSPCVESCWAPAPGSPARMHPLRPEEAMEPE

[32] = biological target: Protein kinase C theta type (Homo sapiens) (UniProt Q04759)
[33] = biological target: Calcium/calmodulin-dependent protein kinase type 1D (Homo sapiens) (UniProt Q8IU85)
[34] = biological target: Serine/threonine-protein kinase 33 (Homo sapiens) (UniProt Q9BYT3)
[35] = biological target: Macrophage-stimulating protein receptor (Homo sapiens) (UniProt Q04912)
[36] = biological target: Serine/threonine-protein kinase 25 (Homo sapiens) (UniProt O00506)
[37] = biological target: Serine/threonine-protein kinase PAK 6 (Homo sapiens) (UniProt Q9NQU5)
[38] = biological target: Receptor-type tyrosine-protein kinase FLT3 (Homo sapiens) (UniProt P36888)
[39] = biological target: Ephrin type-A receptor 4 (Homo sapiens) (UniProt P54764)
[40] = biological target: Serine/threonine-protein kinase LATS2 (Homo sapiens) (UniProt Q9NRM7)
Chain of Serine/threonine-protein kinase LATS2 (Homo sapiens) (Q9NRM7 whole entry): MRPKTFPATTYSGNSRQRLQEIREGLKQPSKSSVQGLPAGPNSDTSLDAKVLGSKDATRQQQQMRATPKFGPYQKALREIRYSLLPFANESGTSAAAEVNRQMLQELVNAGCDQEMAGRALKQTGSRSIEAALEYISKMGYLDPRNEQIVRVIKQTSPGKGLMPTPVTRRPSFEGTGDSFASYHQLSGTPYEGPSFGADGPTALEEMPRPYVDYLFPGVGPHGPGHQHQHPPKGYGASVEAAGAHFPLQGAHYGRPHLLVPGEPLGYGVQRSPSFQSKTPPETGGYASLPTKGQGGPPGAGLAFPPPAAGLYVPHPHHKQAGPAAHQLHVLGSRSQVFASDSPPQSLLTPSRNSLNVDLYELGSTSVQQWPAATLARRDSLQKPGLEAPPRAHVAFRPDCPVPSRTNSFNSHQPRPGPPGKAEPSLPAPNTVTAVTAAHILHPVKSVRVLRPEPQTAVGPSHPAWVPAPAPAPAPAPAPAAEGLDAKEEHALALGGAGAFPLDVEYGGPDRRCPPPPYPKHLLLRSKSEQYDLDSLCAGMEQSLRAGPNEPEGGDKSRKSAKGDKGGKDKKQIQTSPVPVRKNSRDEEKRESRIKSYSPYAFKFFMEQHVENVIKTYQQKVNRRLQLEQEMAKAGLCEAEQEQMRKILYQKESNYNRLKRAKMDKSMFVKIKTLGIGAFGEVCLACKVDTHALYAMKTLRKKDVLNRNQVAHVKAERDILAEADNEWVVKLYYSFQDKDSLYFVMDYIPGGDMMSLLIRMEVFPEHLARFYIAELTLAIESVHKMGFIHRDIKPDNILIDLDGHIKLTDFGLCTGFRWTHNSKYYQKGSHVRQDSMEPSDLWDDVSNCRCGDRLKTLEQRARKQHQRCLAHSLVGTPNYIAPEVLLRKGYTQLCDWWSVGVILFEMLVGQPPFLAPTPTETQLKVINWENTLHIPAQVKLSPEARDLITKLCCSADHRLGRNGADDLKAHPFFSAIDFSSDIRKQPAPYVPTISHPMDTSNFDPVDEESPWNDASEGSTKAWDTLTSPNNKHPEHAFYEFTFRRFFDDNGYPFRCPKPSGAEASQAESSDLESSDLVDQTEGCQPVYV

[41] = biological target: Calcium/calmodulin-dependent protein kinase type II subunit beta (Homo sapiens) (UniProt Q13554)
[42] = biological target: MAP/microtubule affinity-regulating kinase 3 (Homo sapiens) (UniProt P27448)
[43] = biological target: Citron Rho-interacting kinase (Homo sapiens) (UniProt O14578)
[44] = system: Fibroblast growth factor receptor 3 (Homo sapiens), P22607 [G697C]
[45] = biological target: Atypical kinase COQ8A, mitochondrial (Homo sapiens) (UniProt Q8NI60)
[46] = biological target: Kappa-type opioid receptor (Homo sapiens) (UniProt P41145); settings: Compound concentration 10.0 uM
[47] = Compound concentration 1000.0 nM
[48] = Compound concentration 100.0 nM

Chain of Aurora kinase A (Homo sapiens) (O14965 whole entry): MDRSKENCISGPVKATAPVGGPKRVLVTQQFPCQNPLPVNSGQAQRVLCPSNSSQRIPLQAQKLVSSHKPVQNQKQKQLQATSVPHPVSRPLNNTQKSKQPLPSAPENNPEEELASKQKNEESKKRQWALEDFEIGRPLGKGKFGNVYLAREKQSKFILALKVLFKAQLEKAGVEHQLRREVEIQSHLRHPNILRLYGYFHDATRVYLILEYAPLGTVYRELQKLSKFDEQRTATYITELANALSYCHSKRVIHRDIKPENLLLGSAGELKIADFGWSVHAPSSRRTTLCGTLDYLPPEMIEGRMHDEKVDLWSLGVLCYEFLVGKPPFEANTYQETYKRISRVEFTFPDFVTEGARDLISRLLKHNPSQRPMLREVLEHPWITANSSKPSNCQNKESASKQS

C[C@H](NC(=O)Nc1cc2[nH]ncc2c(CO)n1)c1ccccn1 [ERKi-NC]
residual activity [1, 47]: 72.8% | residual activity [2, 47]: 100% | residual activity [3, 47]: 100% | residual activity [4, 47]: 34.7% | residual activity [5, 47]: 100% | residual activity [6, 47]: 100% | residual activity [7, 47]: 100% | inhibition [8]: 16.8% | inhibition [9]: 25.4% | inhibition [10]: 7.55% | residual activity [11, 47]: 100% | residual activity [12, 47]: 51.5% | residual activity [13, 47]: 100% | residual activity [14, 47]: 100% | residual activity [15, 47]: 100% | residual activity [16, 47]: 100% | residual activity [17, 47]: 100% | residual activity [18, 47]: 88% | residual activity [19, 47]: 100% | inhibition [20]: 21.1% | residual activity [21, 47]: 100% | residual activity [22, 47]: 81.7% | residual activity [23, 47]: 96.4% | residual activity [24, 47]: 96% | residual activity [25, 47]: 42.7% | residual activity [26, 47]: 86.3% | inhibition [27]: 4.79% | residual activity [28, 47]: 100% | residual activity [29, 47]: 85.6% | residual activity [30, 47]: 100% | residual activity [31, 47]: 85.4% | residual activity [32, 47]: 100% | residual activity [33, 47]: 100% | residual activity [34, 47]: 100% | residual activity [35, 47]: 85.5% | residual activity [36, 47]: 100% | residual activity [37, 47]: 100% | residual activity [38, 47]: 100% | residual activity [39, 47]: 61% | residual activity [40, 47]: 100% | residual activity [41, 47]: 100% | residual activity [42, 47]: 89.6% | residual activity [43, 47]: 99.9% | residual activity [44, 47]: 100% | residual activity [45, 47]: 96.3% | inhibition [46]: 22.9%

C[C@@H](NC(=O)Nc1cc2[nH]ncc2c(CO)n1)c1ccccc1 [ERKi]
residual activity [1, 48]: 87% | residual activity [2, 48]: 82% | residual activity [3, 48]: 100% | residual activity [4, 48]: 55.9% | residual activity [5, 48]: 81.4% | residual activity [6, 48]: 91.2% | residual activity [7, 48]: 100% | inhibition [8]: 9.2% | inhibition [9]: -9.99% | inhibition [10]: 21.1% | residual activity [11, 48]: 81.5% | residual activity [12, 48]: 85.9% | residual activity [13, 48]: 88% | residual activity [14, 48]: 96.9% | residual activity [15, 48]: 67.8% | residual activity [16, 48]: 98.2% | residual activity [17, 48]: 99.8% | residual activity [18, 48]: 89.3% | residual activity [19, 48]: 93.7% | inhibition [20]: 7.46% | residual activity [21, 48]: 99.5% | residual activity [22, 48]: 100% | residual activity [23, 48]: 100% | residual activity [24, 48]: 100% | residual activity [25, 48]: 88.4% | residual activity [26, 48]: 100% | inhibition [27]: 46.5% | residual activity [28, 48]: 84.7% | residual activity [29, 48]: 74.7% | residual activity [30, 48]: 86.3% | residual activity [31, 48]: 75.2% | residual activity [32, 48]: 100% | residual activity [33, 48]: 83.3% | residual activity [34, 48]: 100% | residual activity [35, 48]: 94.4% | residual activity [36, 48]: 61.5% | residual activity [37, 48]: 63.5% | residual activity [38, 48]: 91.6% | residual activity [39, 48]: 100% | residual activity [40, 48]: 29% | residual activity [41, 48]: 75.2% | residual activity [42, 48]: 100% | residual activity [43, 48]: 100% | residual activity [44, 48]: 100% | residual activity [45, 48]: 89.6% | inhibition [46]: 10.3%
